From US20040022782A1, “Cyclitol containing carbohydrates from human tissue which regulate glycogen metabolism” (Rodaris Pharmaceuticals Limited, priority 1996, published 2004)

Tests used:
[1] = target: T1, pyruvate dehydrogenase phosphatase isolated from bovine heart (Bos taurus, UniProt P35816); assay: Stimulation of pyruvate dehydrogenase (PDH) phosphatase; assay type: biochemical
T1 construct: pyruvate dehydrogenase phosphatase isolated from bovine heart; from tissue; host or cells: bovine heart
T1 sequence (P35816 72-538): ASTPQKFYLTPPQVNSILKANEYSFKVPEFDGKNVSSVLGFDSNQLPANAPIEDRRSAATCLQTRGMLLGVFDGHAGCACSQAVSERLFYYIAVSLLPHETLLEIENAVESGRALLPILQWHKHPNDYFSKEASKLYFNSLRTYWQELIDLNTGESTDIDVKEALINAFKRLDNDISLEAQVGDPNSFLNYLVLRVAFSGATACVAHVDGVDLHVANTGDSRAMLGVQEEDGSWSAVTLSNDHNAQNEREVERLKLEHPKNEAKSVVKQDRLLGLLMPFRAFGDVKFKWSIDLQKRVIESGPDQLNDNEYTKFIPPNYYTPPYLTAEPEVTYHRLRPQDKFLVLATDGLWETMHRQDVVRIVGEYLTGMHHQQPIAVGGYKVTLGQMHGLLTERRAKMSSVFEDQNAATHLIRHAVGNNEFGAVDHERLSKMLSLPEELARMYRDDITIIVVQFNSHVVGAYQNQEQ
T1 sequence (O46504 32-878 partner limits assumed): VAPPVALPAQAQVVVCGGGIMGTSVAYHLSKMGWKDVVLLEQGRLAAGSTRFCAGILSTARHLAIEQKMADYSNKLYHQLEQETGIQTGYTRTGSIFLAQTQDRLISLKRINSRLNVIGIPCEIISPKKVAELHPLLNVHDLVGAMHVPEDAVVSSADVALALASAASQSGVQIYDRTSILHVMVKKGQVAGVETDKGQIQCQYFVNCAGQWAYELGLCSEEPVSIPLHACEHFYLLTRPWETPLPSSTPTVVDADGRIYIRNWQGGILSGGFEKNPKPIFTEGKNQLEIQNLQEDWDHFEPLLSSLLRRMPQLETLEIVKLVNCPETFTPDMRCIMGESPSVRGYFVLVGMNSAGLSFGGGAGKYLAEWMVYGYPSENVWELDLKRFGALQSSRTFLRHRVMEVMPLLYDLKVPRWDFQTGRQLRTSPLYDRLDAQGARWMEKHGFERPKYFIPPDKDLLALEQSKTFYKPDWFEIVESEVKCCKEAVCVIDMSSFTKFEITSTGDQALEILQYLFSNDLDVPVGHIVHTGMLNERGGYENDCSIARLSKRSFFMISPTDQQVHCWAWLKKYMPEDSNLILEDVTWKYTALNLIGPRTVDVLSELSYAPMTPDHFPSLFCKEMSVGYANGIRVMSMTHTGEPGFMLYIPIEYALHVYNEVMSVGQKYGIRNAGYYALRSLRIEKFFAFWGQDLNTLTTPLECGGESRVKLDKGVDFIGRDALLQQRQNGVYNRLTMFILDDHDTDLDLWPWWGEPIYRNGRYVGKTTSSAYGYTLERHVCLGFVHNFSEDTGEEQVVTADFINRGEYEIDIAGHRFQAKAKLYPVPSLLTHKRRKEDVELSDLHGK
Method: Pyruvate dehydrogenase complex (PDC) and the PDH phosphatase were prepared and stored at −80° C. until use. The assay for both PDH phosphatases, in the presence of absence of insulin mediator, was based upon the initial rate of activation of inactivated, phosphorylated PDH complex. […] A two stage assay was used to quantitate the phosphatase activity. A sample of inactivated PDC (50 μL) was preincubated at 30° C. with 1 mg/mL fat-free BSA, 10 mM MgCl2, 0.1 mM CaCl2 and […] DTT in 20 mM potassium phosphate buffer at pH 7.0 (total volume 250 μL) for three minutes. At this time, 10 μL of the PDH phosphatase and 10 μL of IPG were added and the incubation continued for a further 2 min. At the end of this time, 200 μL of the mix was removed and added to 100 μL of 300 mM NaF. The activated PDH was determined at the second stage photometrically by measuring the rate of production of NADH. One hundred microliters of the stopped reaction were added to 1 mL of reaction mixture containing 50 mM potassium phosphate buffer at pH 8.0, 2.5 mM β-NAD^+, 0.2 mM TPP, 0.13 mM coenzyme A, 0.32 mM DTT and 2 mM sodium pyruvate. The production of NADH was followed at 340 nm for 5 min.
Three samples of liver P-type used. All were suspended on day of use at the rate of 1 g liver in […] water. All three preparations were tested before and after treatment with dithizone, while the one preparation was also treated with Mn after dithizone to attempt to reactivate it. The reactivation procedure was to preincubate a de-metallized sample with 2.7 mM Mn for 15 min before it was added to the inactivated PDH mix.
The P-1 sample used here was the same as that used in previous experiment although a second tube of that composite sample. The dithizone treated sample was the same as that used previously. For reactivation, the de-medalist sample was pre-incubated for 15 mins with either 2.7 mM Mn, 1.8 mM Zn or 2.7 mM Mn-1.8 mM Zn. All samples tested on normal assay system using 10 μl P′ase and 5 ul of sample.

Glycogen synthase = Glycogen synthase activity in rat fat cells; assay type: cell-based; conditions: 5 min incubation, 20 μl insulin (25 mU/ml) or 10 μl placenta IPG
Method: Glycogen synthase activity was assayed as follows. Fat cells were prepared from epididymal adipose tissue using 140-150 g rats (Wistar strain). Fat pads from 3 rats were cut into small pieces and incubated in 8 ml of Krebs ringer bicarbonate containing 2% albumin plus 24 mg of collagenase for 25 minutes at 37° C. The isolated cells were filtered and washed in 3×10 ml Krebs ringer phosphate medium containing 30 mg/ml of bovine serum albumin (Fraction v, Sigma), the pH was adjusted to 7.4 with NaOH after addition of albumin. The washed cells were also resuspended in Krebs ringer phosphate (10 ml of medium/g of original tissue).
For measurement of enzyme activities, three incubation vessels were set up, each contained 5 ml cells. There were no additions to the first, the second contained 20 μl insulin (25 mU/ml) and the third 10 μl placenta IPG. […]
The reaction was stopped with 0.5 ml cold buffer (100 mM KF/10 mM EDTA/1 mM benzamidine (4), pH 7.0) and the cells homogenized and transferred to Eppendorf tubes. These were spun at 10,000 g for 15 min and the middle layer collected for enzyme assay all tubes were set up in duplicate and measured in the presence of 0.01 mM glucose 6-phosphate except the maximally activated glycogen synthase tube which contained 7.2 mM glucose 6-phosphate. […] Glycogen synthase activity is expressed as a percentage of the total synthase activity (G6P maximum).

rat liver = assay: IPG release in rat liver following infusion with insulin; assay type: in vivo; conditions: 2 minutes after insulin infusion
[2] = reactivation experiment, 10 μl P'ase and 5 ul of sample, 2.7 mM Mn, 1.8 mM Zn, Treated = dithizone

Compound | effect on P'ase activity ([1]; 10^−4M Mn (assay no: 3)) | PDH phosphatase (activity) ([1]; +Mg2+ + Ca2+) | PDH phosphatase (activity) ([1]; +Mg2+, no Ca2+) | Units/g ([1]; dithizone experiment, Vol used 5 μl, Treated = dithizone, Mn 2.7 mM) | % stimulation ([1]; dithizone experiment, Vol used 5 μl, liver P-type 1 g liver in 10 μl water, Treated = dithizone, Mn 2.7 mM) | % stimulation [1, 2] | Stimulation as % of G6P Maximum (Glycogen synthase) | increase in PDH phosphatase stimulating activity of rat liver (rat liver)
[Mn+2] [Mn, manganese] | no effect | Δ 0.680 OD/min (2) | Δ 0.000 OD/min (6) | 0 Units/g | −11% | +12% | – | –
[Zn+2] [Zn] | – | – | – | – | – | +122% | – | –
insulin | – | – | – | – | – | – | 6.54% | two-fold increase in activity
